This note sets out measurements from patent US11912703B2, “6-azaindole compounds” (BRISTOL-MYERS SQUIBB COMPANY, priority 2017, dated 2024).

Test [1] deals with human TLR7 (Homo sapiens (Human), UniProt Q9NYK1). Kind of test: TLR7 inhibition reporter assay (HEK-Blue SEAP). In kind it is cell-based. The following applies: HEK-Blue cells overexpressing human TLR7, gardiquimod 7.5 μM stimulation. Background: In a reporter assay the amount or activity of a reporter protein is the signal.
For test [2], the target named is human TLR8 (Homo sapiens (Human), UniProt Q9NR97). Description: TLR8 inhibition reporter assay (HEK-Blue SEAP).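 Note: SEAP driven by IFN-β minimal promoter with five NF-κB and AP-1 sites, compounds tested 0.05 nM to 50 µM, 22 h incubation, inhibition relative to agonist plus DMSO wells.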
human TLR8, sequence (Q9NR97 27-1041): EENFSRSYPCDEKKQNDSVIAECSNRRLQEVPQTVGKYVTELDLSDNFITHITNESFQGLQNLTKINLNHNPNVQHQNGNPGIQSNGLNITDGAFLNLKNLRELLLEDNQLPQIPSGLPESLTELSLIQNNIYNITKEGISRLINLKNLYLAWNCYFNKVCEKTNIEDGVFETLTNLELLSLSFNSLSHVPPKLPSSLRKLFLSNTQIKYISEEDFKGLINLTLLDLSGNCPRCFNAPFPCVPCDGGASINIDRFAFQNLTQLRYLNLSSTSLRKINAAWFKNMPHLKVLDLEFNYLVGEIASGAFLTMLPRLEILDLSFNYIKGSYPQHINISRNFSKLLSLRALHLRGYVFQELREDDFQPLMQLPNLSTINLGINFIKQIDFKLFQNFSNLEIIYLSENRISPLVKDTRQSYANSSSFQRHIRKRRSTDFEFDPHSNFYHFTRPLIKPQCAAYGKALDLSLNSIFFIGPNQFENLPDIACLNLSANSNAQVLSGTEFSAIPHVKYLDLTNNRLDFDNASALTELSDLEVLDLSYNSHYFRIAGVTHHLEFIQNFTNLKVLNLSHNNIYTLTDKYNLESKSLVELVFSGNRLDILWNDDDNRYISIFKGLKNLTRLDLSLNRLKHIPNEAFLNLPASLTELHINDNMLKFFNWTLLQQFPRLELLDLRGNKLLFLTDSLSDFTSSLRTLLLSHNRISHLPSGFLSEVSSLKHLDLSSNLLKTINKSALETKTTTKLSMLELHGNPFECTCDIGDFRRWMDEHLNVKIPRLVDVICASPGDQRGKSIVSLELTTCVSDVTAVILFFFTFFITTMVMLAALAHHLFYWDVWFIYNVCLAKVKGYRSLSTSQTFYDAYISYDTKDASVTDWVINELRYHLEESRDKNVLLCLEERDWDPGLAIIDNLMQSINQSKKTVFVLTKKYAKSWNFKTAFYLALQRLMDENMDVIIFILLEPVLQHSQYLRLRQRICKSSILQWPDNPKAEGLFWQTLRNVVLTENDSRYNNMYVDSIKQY
The target of test [3] is human TLR9 (Homo sapiens (Human), UniProt Q9NR96). Description: TLR9 inhibition reporter assay (HEK-Blue SEAP).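 Note: SEAP driven by IFN-β minimal promoter carrying five NF-κB and AP-1 sites, 22 h at 37 °C, compounds 0.05 nM–50 µM, inhibition scaled between agonist-plus-DMSO and reference-inhibitor wells.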
human TLR9, sequence (Q9NR96 26-1032): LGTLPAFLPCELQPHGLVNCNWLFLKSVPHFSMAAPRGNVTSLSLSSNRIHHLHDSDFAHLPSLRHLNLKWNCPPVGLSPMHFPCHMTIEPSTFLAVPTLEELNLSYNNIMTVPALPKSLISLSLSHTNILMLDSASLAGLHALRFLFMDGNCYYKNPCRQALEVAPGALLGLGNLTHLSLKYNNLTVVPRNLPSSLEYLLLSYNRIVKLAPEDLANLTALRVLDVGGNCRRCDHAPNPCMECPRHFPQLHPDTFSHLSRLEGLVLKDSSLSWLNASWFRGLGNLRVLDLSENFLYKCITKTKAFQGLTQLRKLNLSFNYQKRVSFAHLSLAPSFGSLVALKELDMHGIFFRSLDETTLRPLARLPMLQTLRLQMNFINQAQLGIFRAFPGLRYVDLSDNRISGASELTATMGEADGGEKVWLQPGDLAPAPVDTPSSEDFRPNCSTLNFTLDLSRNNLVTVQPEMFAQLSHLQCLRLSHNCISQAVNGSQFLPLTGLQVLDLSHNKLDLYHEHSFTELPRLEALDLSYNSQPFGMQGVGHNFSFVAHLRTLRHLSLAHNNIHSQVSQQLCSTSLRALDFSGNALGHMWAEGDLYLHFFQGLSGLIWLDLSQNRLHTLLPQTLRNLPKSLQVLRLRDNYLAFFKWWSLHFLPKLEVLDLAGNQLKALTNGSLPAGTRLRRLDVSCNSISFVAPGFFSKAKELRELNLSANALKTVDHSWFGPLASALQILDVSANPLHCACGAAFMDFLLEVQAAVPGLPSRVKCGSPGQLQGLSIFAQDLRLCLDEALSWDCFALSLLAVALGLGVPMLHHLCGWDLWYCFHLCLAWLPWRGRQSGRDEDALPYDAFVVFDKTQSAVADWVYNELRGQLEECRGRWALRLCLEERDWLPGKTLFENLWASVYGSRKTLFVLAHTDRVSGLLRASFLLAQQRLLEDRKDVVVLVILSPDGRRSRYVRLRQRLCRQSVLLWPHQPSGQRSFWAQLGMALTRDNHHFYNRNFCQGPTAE
Where [4] appears, read: read-out: TLR8 IC50; HEK-Blue cells overexpressing human TLR8, R848 15.9 μM stimulation, SEAP reporter.
The mark [5] stands for this setting: read-out: TLR9 IC50; HEK-Blue cells overexpressing human TLR9, ODN2006 5 nM stimulation, SEAP reporter.
[6] abbreviates: read-out: TLR8 IC50; HEK-Blue cells overexpressing human TLR8; R848 15.9 μM stimulation; SEAP reporter.
[7] abbreviates: read-out: TLR9 IC50; HEK-Blue cells overexpressing human TLR9; ODN2006 5 nM stimulation; SEAP reporter.

SMILES strings stand for the structures. Like-named read-outs stand apart in the source and are kept apart here. Where only a bound is given, the exact number is not on record here.

human TLR7, sequence (Q9NYK1 27-1049): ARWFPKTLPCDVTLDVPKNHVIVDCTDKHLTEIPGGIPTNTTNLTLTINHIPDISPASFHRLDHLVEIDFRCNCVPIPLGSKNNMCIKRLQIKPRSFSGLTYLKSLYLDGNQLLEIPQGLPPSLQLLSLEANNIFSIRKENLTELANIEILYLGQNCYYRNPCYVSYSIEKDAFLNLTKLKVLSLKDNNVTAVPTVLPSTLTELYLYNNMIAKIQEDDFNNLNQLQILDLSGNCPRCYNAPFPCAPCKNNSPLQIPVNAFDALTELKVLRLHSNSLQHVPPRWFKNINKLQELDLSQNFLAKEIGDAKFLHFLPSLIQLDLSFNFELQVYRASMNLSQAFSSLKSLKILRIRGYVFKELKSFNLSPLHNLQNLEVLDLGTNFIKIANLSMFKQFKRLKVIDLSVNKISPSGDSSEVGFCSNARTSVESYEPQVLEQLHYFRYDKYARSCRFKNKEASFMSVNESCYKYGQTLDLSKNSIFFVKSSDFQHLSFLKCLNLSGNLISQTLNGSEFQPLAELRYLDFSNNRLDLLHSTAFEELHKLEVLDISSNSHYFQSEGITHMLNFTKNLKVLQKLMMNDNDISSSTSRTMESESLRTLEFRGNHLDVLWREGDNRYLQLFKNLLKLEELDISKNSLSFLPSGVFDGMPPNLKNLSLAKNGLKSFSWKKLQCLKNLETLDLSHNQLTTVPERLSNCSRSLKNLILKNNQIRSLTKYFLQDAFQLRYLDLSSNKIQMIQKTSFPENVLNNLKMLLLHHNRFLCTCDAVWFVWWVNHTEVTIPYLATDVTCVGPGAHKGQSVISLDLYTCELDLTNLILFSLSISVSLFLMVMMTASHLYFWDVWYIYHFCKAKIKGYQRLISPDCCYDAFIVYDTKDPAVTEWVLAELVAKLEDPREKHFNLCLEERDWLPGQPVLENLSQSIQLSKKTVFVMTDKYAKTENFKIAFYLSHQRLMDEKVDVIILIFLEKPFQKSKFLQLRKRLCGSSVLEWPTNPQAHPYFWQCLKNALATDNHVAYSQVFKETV

For orientation: IC50 means the concentration that inhibits the measured activity by half. Regarding `Cc1cc(-c2[nH]c3cnc(C4CCN(C5COC5)CC4)c(F)c3c2C(C)C)cc(C)n1` [Example 251], the figures for the IC50 in test [1], in test [2] (setting [4]) and in test [3] (setting [5]) were 15 nM, 23 nM and 14800 nM, respectively.

As to `CCCN1CCN(c2ncc3[nH]c(-c4cc(OC)c5ncnn5c4)c(C(C)C)c3c2F)[C@H](C)C1` [Example 437], the IC50 in test [1] stood at 2.6 nM; in test [2], 6.4 nM; in test [3], 7670 nM.

For `COc1cc(-c2[nH]c3cnc(N4CCN(C5COC5)C[C@H]4C)c(F)c3c2C(C)C)cn2ncnc12` [Example 440], the values for the IC50 in test [1], in test [2] (setting [4]) and in test [3] (setting [5]) were 11 nM, 62 nM and more than 50000 nM, respectively.

As to `COc1cc(-c2[nH]c3cnc(N4CC5(CN(CC6CC6)C5)C4)c(F)c3c2C(C)C)cn2ncnc12` [Example 374], the IC50 in test [1] was 6 nM; in test [2] (setting [4]), 39 nM; in test [3] (setting [5]) it was 5470 nM.

For `COc1cc(-c2[nH]c3cnc(N4CCN(CC(=O)N(C)C)C[C@H]4C)c(F)c3c2C(C)C)cn2ncnc12` [Example 446], the IC50 in test [1] is 18 nM; in test [2] (setting [4]), 21 nM; in test [3] (setting [5]), more than 50000 nM.

As to `COc1cc(-c2[nH]c3cnc(C4CCN(C5COC5)CC4)c(F)c3c2C(C)C)cn2ncnc12` [Example 38], the results for the IC50 in test [1], in test [2] (setting [4]) and in test [3] (setting [5]) were 2.8 nM, 12 nM and 13100 nM, respectively.

As to `CCN(C)C1CCN(c2ncc3[nH]c(-c4cc(OC)c5ncnn5c4)c(C(C)C)c3c2F)CC1` [Example 102], the IC50 in test [1] stood at 0.34 nM; in test [2] (setting [4]), 0.24 nM; in test [3] (setting [5]), 2820 nM.

As to `COc1cc(-c2[nH]c3cnc(C4CCN(C(=O)CN(C)C)CC4)cc3c2C(C)C)cn2ncnc12` [Example 343], the IC50 in test [1] amounted to 28 nM; in test [2] (setting [4]) it was 190 nM; in test [3] (setting [5]), 217 nM.

`COc1cc(-c2[nH]c3cnc(C4CCC(N5CC6(COC6)C5)CC4)c(F)c3c2C(C)C)cn2ncnc12` (stereo not drawn) [Example 226]: the figures for the half-maximal inhibitory concentration (IC50) in test [1], in test [2] (setting [6]) and in test [3] (setting [7]) were 0.51 nM, 0.73 nM and 1290 nM, respectively.

Take `COc1cc(-c2[nH]c3cnc(N4CC5(CN(CC6CCC6)C5)C4)c(F)c3c2C(C)C)cn2ncnc12` [Example 375]: the IC50 was 17 nM in test [1], more than 3120 nM in test [2] (setting [4]) and 7210 nM in test [3] (setting [5]).

Turning to `Cc1c(-c2[nH]c3cnc(C4CCN(CC(N)=O)CC4)c(F)c3c2C(C)C)cn2ncnc2c1C` [Example 15], the IC50 is 3.5 nM in test [1], 1.6 nM in test [2] (setting [4]) and 13500 nM in test [3] (setting [5]).

For the molecule `COc1cc(-c2[nH]c3cnc(N4CCN(C(=O)CN(C)C)CC4)c(F)c3c2C(C)C)cn2ncnc12` [compound 368], the IC50 was 1.3 nM in test [1], 2.3 nM in test [2] (setting [4]) and 5890 nM in test [3] (setting [5]).

Take `COc1cc(-c2[nH]c3cnc(C4CCC(NCC5(C)COC5)CC4)c(F)c3c2C(C)C)cn2ncnc12` (stereo not drawn) [Example 225]: the results for the 50% inhibitory concentration (IC50) in test [1], in test [2] (setting [6]) and in test [3] (setting [7]) were 4 nM, 1.4 nM and 4700 nM, respectively.

`COc1cc(-c2[nH]c3cnc(C4CCC(N5CC6(COC6)C5)C4)cc3c2C(C)C)cn2ncnc12` (stereo not drawn) [Example 141]: the IC50 in test [1] amounted to 27 nM; in test [2] (setting [4]), 25 nM; in test [3] (setting [5]) it was 482 nM.

As for `CNC(=O)CNC1CCN(c2cc3c(C(C)C)c(-c4cc(OC)c5ncnn5c4)[nH]c3cn2)CC1` [Example 329], the IC50 worked out at 7.5 nM in test [1], 7.4 nM in test [2] (setting [4]) and 647 nM in test [3] (setting [5]).

Regarding `COCCNC1CCC(c2cc3c(C(C)C)c(-c4cn5ncnc5c(C)c4C)[nH]c3cn2)CC1` (stereo not drawn) [Example 347], the 50% inhibitory concentration (IC50) in test [1] stood at 3.9 nM; in test [2] (setting [4]) it was 30 nM; in test [3] (setting [5]), 790 nM.

On to `Cc1c(-c2[nH]c3cnc(N4CCC(NCC(C)(C)O)CC4)c(C)c3c2C(C)C)cn2ncnc2c1C` [Example 88], for which the results for the IC50 in test [1], in test [2] (setting [4]) and in test [3] (setting [5]) were 0.62 nM, 0.28 nM and 322 nM, respectively.

Take `COc1ccc(-c2[nH]c3cnc(C4CCN(C5CCN(CC(C)C)CC5)CC4)cc3c2C)cc1OC` [Example 9]: the IC50 in test [1] amounted to 551 nM; in test [2] (setting [4]), 8220 nM; in test [3] (setting [5]), 26 nM.

As for `COc1cc(-c2[nH]c3cnc(C4CCC(N5CCC5)CC4)cc3c2C(C)C)cn2ncnc12` (stereo not drawn) [Example 332], the IC50 is 7.7 nM in test [1], 56 nM in test [2] (setting [4]) and 154 nM in test [3] (setting [5]).

As for `COc1cc(-c2[nH]c3cnc(C4CCN(C(=O)CN(C)C)CC4)c(F)c3c2C(C)C)cn2ncnc12` [Example 37], the results for the IC50 in test [1], in test [2] (setting [4]) and in test [3] (setting [5]) were 3.3 nM, 4.4 nM and 409 nM, respectively.

For `Cc1c(-c2[nH]c3cnc(C4CCC(NCC5(C)COC5)CC4)c(F)c3c2C(C)C)cn2ncnc2c1C` (stereo not drawn) [Example 171], the IC50 in test [1] came to 0.43 nM; in test [2] (setting [4]), 0.12 nM; in test [3] (setting [5]), 1960 nM.

`COCCN1CCC(c2ncc3[nH]c(-c4cc(OC)c5ncnn5c4)c(C(C)C)c3c2F)CC1` [Example 21]: the figures for the IC50 in test [1], in test [2] (setting [4]) and in test [3] (setting [5]) were 2 nM, 2.7 nM and 3340 nM, respectively.

For the molecule `COc1cc(-c2[nH]c3cnc(N4CCC(NC[C@@H](F)C(C)(C)O)CC4)c(C)c3c2C(C)C)cn2ncnc12` [Example 64], the values for the IC50 in test [1], in test [2] (setting [4]) and in test [3] (setting [5]) were 4.2 nM, 1.5 nM and 2790 nM, respectively.

Turning to `COc1cc(-c2[nH]c3cnc(C4CCC(NCC5(C)COC5)CC4)c(C)c3c2C(C)C)cn2ncnc12` (stereo not drawn) [Example 269], the IC50 in test [1] came to 4.4 nM; in test [2] (setting [4]), 6.4 nM; in test [3] (setting [5]), 205 nM.

Regarding `COc1cc(-c2[nH]c3cnc(N4CCN(CCS(C)(=O)=O)CC4)c(C)c3c2C(C)C)cn2ncnc12` [Example 186], the half-maximal inhibitory concentration (IC50) in test [1] was 12 nM; in test [2] (setting [4]), 6.6 nM; in test [3] (setting [5]), 26500 nM.

Regarding `COc1cc(-c2[nH]c3cnc(C4CCN(CCS(C)(=O)=O)CC4)c(C)c3c2C(C)C)cn2ncnc12` [Example 25], the values for the IC50 in test [1], in test [2] (setting [4]) and in test [3] (setting [5]) were 2.3 nM, 7.2 nM and 188 nM, respectively.

With `Cc1c(-c2[nH]c3cnc(N4CCN(C(C)C)C[C@H]4C)c(F)c3c2C(C)C)cn2ncnc2c1C` [Example 461], the IC50 in test [1] stood at 5.4 nM; in test [2] (setting [6]), 1.5 nM; in test [3] (setting [7]) it was 9020 nM.

Take `COc1cc(-c2[nH]c3cnc(N4CC5(C4)CN(C4COC4)C5)c(F)c3c2C(C)C)cn2ncnc12` [Example 369, 6-(4-fluoro-3-isopropyl-5-(6-(oxetan-3-yl)-2,6-diazaspiro[3.3]heptan-2-yl)-1H-pyrrolo[2,3-c]pyridin-2-yl)-8-methoxy-[1,2,4]triazolo[1,5-a]pyridine]: the figures for the IC50 in test [1], in test [2] (setting [4]) and in test [3] (setting [5]) were 27 nM, 23 nM and more than 50000 nM, respectively.

For `COc1cc(-c2[nH]c3cnc(C4CCC(NC5COC5)CC4)cc3c2C(C)C)cn2ncnc12` (stereo not drawn) [Example 308], the figures for the IC50 in test [1], in test [2] (setting [4]) and in test [3] (setting [5]) were 7.9 nM, 25 nM and 159 nM, respectively.

Turning to `Cc1c(-c2[nH]c3cnc(C4CCC(NCC(C)(C)C)CC4)cc3c2C(C)C)cn2ncnc2c1C` (stereo not drawn) [Example 337], the IC50 is 3.9 nM in test [1], 4 nM in test [2] (setting [4]) and 777 nM in test [3] (setting [5]).

As to `CCN(C)C1CCC(c2cc3c(C(C)C)c(-c4cc(OC)c5ncnn5c4)[nH]c3cn2)C1` (stereo not drawn) [Example 272], the IC50 in test [1] came to 7 nM; in test [2] (setting [4]) it was 22 nM; in test [3] (setting [5]), 391 nM.

Turning to `Cc1c(-c2[nH]c3cnc(C4CCC(N5CCC5)CC4)c(F)c3c2C(C)C)cn2ncnc2c1C` (stereo not drawn) [Example 233], the IC50 amounted to 2.7 nM in test [1], 3.6 nM in test [2] (setting [6]) and 1160 nM in test [3] (setting [7]).

As for `Cc1c(-c2[nH]c3cnc(C4CCC(NC(C)C)CC4)c(C)c3c2C(C)C)cn2ncnc2c1C` (stereo not drawn) [Example 277], the IC50 in test [1] came out at 5.5 nM; in test [2] (setting [4]) it was 13 nM; in test [3] (setting [5]), 265 nM.

On to `CCN1CCN(c2ncc3[nH]c(-c4cn5ncnc5c(C)c4C)c(C(C)C)c3c2F)CC1` [Example 433], for which the IC50 was determined as 3 nM in test [1], 0.32 nM in test [2] (setting [4]) and 6910 nM in test [3] (setting [5]).

In the case of `COc1cc(-c2[nH]c3cnc(N4CCC(NC5CCOCC5)CC4)c(C)c3c2C(C)C)cn2ncnc12` [Example 201], the IC50 was determined as 0.49 nM in test [1], 0.52 nM in test [2] (setting [4]) and 1790 nM in test [3] (setting [5]).

`Cc1cc(-c2[nH]c3cnc(N4CCC(N(C)C)CC4)c(F)c3c2C(C)C)cn2ncnc12` [Example 256]: the IC50 in test [1] was 1.4 nM; in test [2] (setting [4]) it was 1.2 nM; in test [3] (setting [5]) it was 15400 nM.

As to `COc1cc(-c2[nH]c3cnc(N4CCC(N(C)C5COC5)CC4)c(F)c3c2C(C)C)cn2ncnc12` [Example 104], the IC50 in test [1] was found to be 3.6 nM; in test [2] (setting [4]) it was 1.7 nM; in test [3] (setting [5]), 5300 nM.

For `COc1cc(-c2[nH]c3cnc(C4CCC(NCC5(C)COC5)C4)cc3c2C(C)C)cn2ncnc12` (stereo not drawn) [Example 276], the IC50 in test [1] was determined as 7.7 nM; in test [2] (setting [4]) it was 1.2 nM; in test [3] (setting [5]), 114 nM.

Take `Cc1c(-c2[nH]c3cnc(N4CCN(S(C)(=O)=O)CC4)c(F)c3c2C(C)C)cn2ncnc2c1C` [Example 425]: the IC50 in test [1] was 13 nM; in test [2] (setting [4]), 17 nM; in test [3] (setting [5]), more than 50000 nM.

Turning to `CNC(=O)CN1CCN(c2ncc3[nH]c(-c4cc(OC)c5ncnn5c4)c(C(C)C)c3c2F)[C@H](C)C1` [Example 445], the figures for the IC50 in test [1], in test [2] (setting [4]) and in test [3] (setting [5]) were 13 nM, 25 nM and more than 50000 nM, respectively.

`COc1cc(-c2[nH]c3cnc(C4CCC(N5CC6(COC6)C5)CC4)c(C)c3c2C(C)C)cn2ncnc12` (stereo not drawn) [Example 246]: the IC50 came out at 2 nM in test [1], 17 nM in test [2] (setting [4]) and 705 nM in test [3] (setting [5]).
